This note sets out measurements from patent US20250051344A1, “BIFUNCTIONAL SELECTIVE DEGRADERS OF SMARCA2 AND THERAPEUTIC USES THEREOF” (Nurix Therapeutics, Inc., priority 2023, published 2025).

Test [1] deals with T1, SMARCA2 (Homo sapiens, UniProt P51531).
T1 construct: endogenous in cells
The experiment in a line: SMARCA2 Cellular Degradation Assay (Western blot analysis on Jess platform). The class given is cell-based. Conditions: for Dmax / DC50: cellular degradation; for Fold Selectivity SMARCA4/2: ratio DC50 SMARCA4 / DC50 SMARCA2. Here is the method:
SMARCA2 Cellular Degradation Assay
Western Blot Analysis for SMARCA2 Degradation
Frozen cell pellets were thawed on ice and resuspended in RIPA lysis buffer (Millipore, Cat. No. 20-188) supplemented with 0.2% SDS (Fisher Scientific, Cat. No. 24730020), 200 mM β-glycerophosphate (Alfa Aesar, Cat. No. J62121), 500 mM NaF (Rigaku, Cat. No. 1008046), protease inhibitor (1 tablet per 10 mL, Sigma, Cat. No. 11836170001), 250 U/μL benzonase (Millipore, Cat. No. 71206), 200 mM sodium orthovanadate (FivePhoton, Cat. No. ActVO-4), and 100 mM PMSF (Sigma, Cat. No. 10837091001). 50 μL lysis buffer was used to lyse each pellet containing 5×10E5-1×10E6 live cells extracted from tumors. Lysates were centrifuged for 10 mins at 20,817×g and lysate supernatants were saved for further analysis. Protein levels were determined by the BCA Assay performed according to manufacturer's protocol (EMD Millipore, Cat. No. 71285-3). Samples were evaluated by Western blot analysis on the Jess Platform (ProteinSimple). Lysates were diluted with complete lysis buffer (as described above) and 5 μg of total proteins were loaded onto each capillary. Samples were prepared using the ProteinSimple EZ Standard Pack 1 (Cat. No. PS-ST01EZ-8; containing tubes with powdered (5×) Fluorescent Master Mix, DTT, and biotinylated ladder) and run using the ProteinSimple 25-Capillary Cartridge kit (Cat. No. SM-W004; containing 25-capillary cartridge Wash reagent, and 10× Sample Buffer reagent), the ProteinSimple Anti-Rabbit HRP Detection Module for Jess (Cat. No. DM-001; containing Antibody Diluent, anti-rabbit secondary antibody, Luminol-S, Peroxide, and Streptavidin-HRP), and the ProteinSimple Anti-Mouse NIR Detection Module for Jess (Cat. No. DM-009; containing Antibody Diluent, anti-mouse NIR secondary antibody, and Streptavidin-NIR) as the following describes. The DTT was reconstituted with 40 μL water to make a 400 mM solution, 20 μL of the DTT solution plus 20 μL of 10× Sample Buffer were added to reconstitute the 5× Fluorescent Master Mix, and 20 μL of H2O was used to reconstitute the biotinylated ladder. For each sample, lysate (4 μL) was combined with 5× Fluorescent Master Mix (1 μL) and heated at 95° C. for 5 minutes. Samples were cooled and stored on ice. Primary antibody solution was made using anti-SMARCA2 antibody (Abcam, Cat. No. 240648, 1:10) and anti-beta-Actin antibody (Cell Signaling Technology, Cat. No. 3700S, 1:25) in antibody diluent. The 25-capillary cartridges were prepared per standard ProteinSimple protocol with each sample in a column. For the biotinylated ladder in column 1, the following were added: 5 µL of ladder sample in Row A, 10 μL of antibody diluent in Rows B and C, 10 μL of Streptavidin-NIR in Row D, and 15 μL of a 50:50 Luminol-s/Peroxide solution in Row E. For each test sample (columns 2-25), the following were added per column: 5 μL of sample in Row A, 10 μL of antibody diluent in Row B, 10 μL of primary antibody solution in Row C, 10 μL of secondary antibody in Row D, and 15 μL of a 50:50 Luminol-S/Peroxide solution in Row E. 500 μL wash buffer was added to the wash buffer wells in the cartridge and cartridge was spun at 1000×g for 5 minutes prior to loading into the Jess. Samples were run using the Chemiluminescence and Fluorescence immunoassays in the ProteinSimple Compass for SimpleWestern program (version 5.0.0). After running, SMARCA2, actin, and background curves were identified in the Compass software; note that in the Compass software, the electropherograms are also visualized as bands for comparison with standard Western blot outputs. The electropherogram area reading for each sample curve was normalized to that of the corresponding actin curve per column following background (capillary background) subtraction using the following equation: […]
Following normalization, the percentage of SMARCA2 remaining per sample relative to the vehicle control was calculated as follows: […]
Background: A western blot detects proteins with antibodies after separation by electrophoresis.

The target in test [2] is T2, SMARCA4 (Homo sapiens, UniProt P51532).
T2 construct: endogenous in cells
The experiment in a line: Cellular degradation assay, SMARCA4 (Table 1). It is filed as cell-based.

T1 sequence (P51531 whole entry, species assumed): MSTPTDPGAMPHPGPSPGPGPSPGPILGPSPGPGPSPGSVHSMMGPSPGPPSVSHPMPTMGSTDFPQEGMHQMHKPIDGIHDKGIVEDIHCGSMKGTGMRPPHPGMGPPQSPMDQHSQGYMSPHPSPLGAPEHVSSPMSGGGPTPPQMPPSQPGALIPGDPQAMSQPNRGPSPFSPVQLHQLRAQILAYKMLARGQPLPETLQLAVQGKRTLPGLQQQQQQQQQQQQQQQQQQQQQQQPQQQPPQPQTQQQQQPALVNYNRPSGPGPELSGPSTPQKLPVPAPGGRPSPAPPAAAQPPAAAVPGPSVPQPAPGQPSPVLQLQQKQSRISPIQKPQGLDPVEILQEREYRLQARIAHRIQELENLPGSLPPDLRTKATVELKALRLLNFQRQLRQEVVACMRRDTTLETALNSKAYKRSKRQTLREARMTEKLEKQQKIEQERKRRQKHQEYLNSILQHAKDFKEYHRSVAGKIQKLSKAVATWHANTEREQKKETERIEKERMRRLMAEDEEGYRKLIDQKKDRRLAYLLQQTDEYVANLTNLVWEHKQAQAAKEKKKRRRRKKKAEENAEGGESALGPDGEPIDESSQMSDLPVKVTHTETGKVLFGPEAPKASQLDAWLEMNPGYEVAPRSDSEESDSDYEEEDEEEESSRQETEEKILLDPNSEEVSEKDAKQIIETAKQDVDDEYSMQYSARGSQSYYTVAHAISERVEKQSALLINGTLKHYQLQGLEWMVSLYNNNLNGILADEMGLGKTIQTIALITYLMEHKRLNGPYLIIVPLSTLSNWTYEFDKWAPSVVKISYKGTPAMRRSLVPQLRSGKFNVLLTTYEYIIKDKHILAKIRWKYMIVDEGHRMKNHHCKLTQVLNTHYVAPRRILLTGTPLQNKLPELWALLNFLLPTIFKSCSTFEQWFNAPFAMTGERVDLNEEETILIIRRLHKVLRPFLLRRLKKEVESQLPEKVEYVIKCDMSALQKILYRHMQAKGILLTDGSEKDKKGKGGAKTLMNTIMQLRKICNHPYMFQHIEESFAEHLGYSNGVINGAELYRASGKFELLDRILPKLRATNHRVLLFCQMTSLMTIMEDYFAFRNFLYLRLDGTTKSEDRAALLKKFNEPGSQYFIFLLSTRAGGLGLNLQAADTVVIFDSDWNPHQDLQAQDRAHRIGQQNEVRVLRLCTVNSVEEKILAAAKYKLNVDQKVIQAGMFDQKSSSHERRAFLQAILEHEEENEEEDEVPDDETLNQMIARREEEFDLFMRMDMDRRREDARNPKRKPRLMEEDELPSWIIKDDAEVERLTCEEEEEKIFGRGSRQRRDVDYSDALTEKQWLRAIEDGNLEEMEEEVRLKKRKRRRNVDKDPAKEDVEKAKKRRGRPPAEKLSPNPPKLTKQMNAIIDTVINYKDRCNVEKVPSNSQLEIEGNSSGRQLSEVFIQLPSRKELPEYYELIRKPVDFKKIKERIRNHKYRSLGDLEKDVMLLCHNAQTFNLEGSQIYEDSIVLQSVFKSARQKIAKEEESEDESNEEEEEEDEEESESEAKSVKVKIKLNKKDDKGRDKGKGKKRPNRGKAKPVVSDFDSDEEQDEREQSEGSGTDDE
T2 sequence (P51532 whole entry, species assumed): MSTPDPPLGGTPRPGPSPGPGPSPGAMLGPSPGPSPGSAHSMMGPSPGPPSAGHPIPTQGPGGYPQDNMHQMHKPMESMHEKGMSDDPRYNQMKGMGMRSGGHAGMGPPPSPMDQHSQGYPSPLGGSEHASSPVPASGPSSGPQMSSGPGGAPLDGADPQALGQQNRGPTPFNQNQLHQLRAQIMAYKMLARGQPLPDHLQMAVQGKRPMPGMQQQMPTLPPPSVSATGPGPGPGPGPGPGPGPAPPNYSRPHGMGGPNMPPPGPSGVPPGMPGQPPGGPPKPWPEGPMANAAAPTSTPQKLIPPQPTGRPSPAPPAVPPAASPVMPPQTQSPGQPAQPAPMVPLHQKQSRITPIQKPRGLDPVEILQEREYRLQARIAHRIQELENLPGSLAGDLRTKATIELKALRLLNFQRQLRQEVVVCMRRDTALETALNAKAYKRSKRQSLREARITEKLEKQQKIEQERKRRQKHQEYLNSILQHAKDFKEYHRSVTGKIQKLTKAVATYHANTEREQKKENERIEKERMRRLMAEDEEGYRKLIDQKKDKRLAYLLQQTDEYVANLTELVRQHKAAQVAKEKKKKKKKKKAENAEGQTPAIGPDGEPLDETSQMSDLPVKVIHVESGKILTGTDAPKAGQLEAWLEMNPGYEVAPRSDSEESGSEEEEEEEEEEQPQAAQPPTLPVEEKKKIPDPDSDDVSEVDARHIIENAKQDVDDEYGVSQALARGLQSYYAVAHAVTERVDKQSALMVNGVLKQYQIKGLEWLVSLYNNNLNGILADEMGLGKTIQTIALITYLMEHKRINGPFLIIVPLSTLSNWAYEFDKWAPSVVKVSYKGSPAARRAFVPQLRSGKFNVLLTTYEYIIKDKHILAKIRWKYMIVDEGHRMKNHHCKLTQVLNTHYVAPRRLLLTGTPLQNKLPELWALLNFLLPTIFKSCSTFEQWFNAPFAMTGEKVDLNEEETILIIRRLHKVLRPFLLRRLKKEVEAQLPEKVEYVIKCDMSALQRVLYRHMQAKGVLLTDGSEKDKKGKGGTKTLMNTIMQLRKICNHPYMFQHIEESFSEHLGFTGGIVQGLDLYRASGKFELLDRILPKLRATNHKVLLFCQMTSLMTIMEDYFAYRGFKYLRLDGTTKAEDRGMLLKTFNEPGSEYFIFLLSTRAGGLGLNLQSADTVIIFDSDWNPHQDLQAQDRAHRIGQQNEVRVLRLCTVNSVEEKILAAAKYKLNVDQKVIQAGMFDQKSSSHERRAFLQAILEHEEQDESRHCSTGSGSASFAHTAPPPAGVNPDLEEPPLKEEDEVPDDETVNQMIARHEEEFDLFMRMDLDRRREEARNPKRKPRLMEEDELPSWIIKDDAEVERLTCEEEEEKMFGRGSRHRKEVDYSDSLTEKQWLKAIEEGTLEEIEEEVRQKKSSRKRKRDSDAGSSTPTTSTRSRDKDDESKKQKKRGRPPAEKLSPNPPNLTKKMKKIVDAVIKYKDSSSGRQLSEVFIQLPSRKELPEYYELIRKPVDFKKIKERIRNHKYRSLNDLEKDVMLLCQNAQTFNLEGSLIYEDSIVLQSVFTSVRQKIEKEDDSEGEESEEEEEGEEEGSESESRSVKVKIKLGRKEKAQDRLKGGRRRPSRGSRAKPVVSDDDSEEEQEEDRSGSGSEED

One may read the Dmax as the greatest extent of degradation seen. Higher therefore signals deep degradation. Take `O=C1CCC(c2ccc(N3CCN(C(=O)CC4CCN(C(=O)C5(c6ccccc6)CCN(c6cnnc(-c7ccccc7O)c6)CC5)CC4)CC3)cc2)C(=O)N1` (racemic) [Example 18, rac-(3R)-3-(4-{4-[2-(1-{1-[6-(2-hydroxyphenyl)pyridazin-4-yl]-4-phenylpiperidine-4-carbonyl}piperidin-4-yl)acetyl]piperazin-1-yl}phenyl)piperidine-2,6-dione]: in test [1], the Dmax came to 44.1% and the “Fold Selectivity SMARCA4/2” value is 1. The compound further displayed a Dmax in test [2] of 27.7%.

As usually defined, the DC50 is the midpoint of the concentration-degradation curve. A low value points to degradation at low concentration. For `O=C1CCC(c2ccc(N3CCC(F)(CN4CC5(C4)CN(C(=O)C4(c6ccccc6)CCN(c6cnnc(-c7ccccc7O)c6)CC4)C5)CC3)nc2)C(=O)N1` (racemic) [Example 19, rac-(3R)-3-(6-{4-fluoro-4-[(6-{1-[6-(2-hydroxyphenyl)pyridazin-4-yl]-4-phenylpiperidine-4-carbonyl}-2,6-diazaspiro[3.3]heptan-2-yl)methyl]piperidin-1-yl}pyridin-3-yl)piperidine-2,6-dione], in test [1], it took 24.4 nM to reach half-maximal degradation (DC50), the Dmax was 77.9% and the “Fold Selectivity SMARCA4/2” value is 6.42. Further, in test [2], the DC50 was determined as 156 nM and the Dmax was 57%.

With `O=C1CCC(c2ccc(N3CCC(C(=O)N4CC5(C4)CN(C(=O)C4(c6ccccc6)CCN(c6cnnc(-c7ccccc7O)c6)CC4)C5)CC3)cc2)C(=O)N1` (racemic) [Example 20, rac-(3R)-3-{4-[4-(6-{1-[6-(2-hydroxyphenyl)pyridazin-4-yl]-4-phenylpiperidine-4-carbonyl}-2,6-diazaspiro[3.3]heptane-2-carbonyl)piperidin-1-yl]phenyl}piperidine-2,6-dione], in test [1], it took 24.6 nM to reach half-maximal degradation (DC50), the Dmax worked out at 67.5% and the “Fold Selectivity SMARCA4/2” value is on record as 406.6. Further, the Dmax in test [2] was found to be 48.3%.

On to `CC1(C(=O)N2CCN(c3ccc(C4CCC(=O)NC4=O)cc3)CC2)CCN(C(=O)C2(c3ccccc3)CCN(c3cnnc(-c4ccccc4O)c3)CC2)CC1` (racemic) [Example 21, rac-(3R)-3-{4-[4-(1-{1-[6-(2-hydroxyphenyl)pyridazin-4-yl]-4-phenylpiperidine-4-carbonyl}-4-methylpiperidine-4-carbonyl)piperazin-1-yl]phenyl}piperidine-2,6-dione], for which, in test [1], the Dmax stood at 32% and the “Fold Selectivity SMARCA4/2” value was 1. This compound also came in with a Dmax in test [2] of 19.3%.

For the compound `O=C1CCC(c2ccc(N3CCN(C(=O)CCCN4CCN(C(=O)C5(c6ccccc6)CCN(c6cnnc(-c7ccccc7O)c6)CC5)CC4)CC3)cc2)C(=O)N1` (racemic) [Example 22, rac-(3R)-3-(4-{4-[4-(4-{1-[6-(2-hydroxyphenyl)pyridazin-4-yl]-4-phenylpiperidine-4-carbonyl}piperazin-1-yl)butanoyl]piperazin-1-yl}phenyl)piperidine-2,6-dione], the Dmax in test [1] was 30.5%; in test [2], 20.6%. Moreover, the “Fold Selectivity SMARCA4/2” value in test [1] is given as 1.

On to `O=C1CCC(c2ccc(N3CCC(CN4CC5(C4)CN(C(=O)C4(Cc6ccccc6)CCN(c6cnnc(-c7ccccc7O)c6)CC4)C5)CC3)cc2)C(=O)N1` (racemic) [Example 26, rac-(3R)-3-(4-{4-[(6-{4-benzyl-1-[6-(2-hydroxyphenyl)pyridazin-4-yl]piperidine-4-carbonyl}-2,6-diazaspiro[3.3]heptan-2-yl)methyl]piperidin-1-yl}phenyl)piperidine-2,6-dione], for which, in test [1], the Dmax amounted to 14.1% and the “Fold Selectivity SMARCA4/2” value worked out at 1. This compound came in with a Dmax in test [2] of 14.6%.

For `O=C1CCC(c2ccc(N3CCC(CN4CC5(C4)CN(C(=O)C4(c6cccc(Cl)c6)CCN(c6cnnc(-c7ccccc7O)c6)CC4)C5)CC3)cc2)C(=O)N1` (racemic) [Example 27, rac-(3R)-3-{4-[4-({6-[4-(3-chlorophenyl)-1-[6-(2-hydroxyphenyl)pyridazin-4-yl]piperidine-4-carbonyl]-2,6-diazaspiro[3.3]heptan-2-yl}methyl)piperidin-1-yl]phenyl}piperidine-2,6-dione], in test [1], half-maximal degradation (DC50) was put at 18.2 nM, the Dmax was determined as 72.8% and the “Fold Selectivity SMARCA4/2” value turned out to be 7.24. Moreover, in test [2], the DC50 is 132 nM and the Dmax is 56.5%.

Turning to `O=C1CCC(c2ccc(N3CCN(C(=O)C4CC45CCN(C(=O)C4(c6ccccc6)CCN(c6cnnc(-c7ccccc7O)c6)CC4)C5)CC3)cc2)C(=O)N1` (racemic) [Example 29, rac-(3R)-3-{4-[4-(5-{1-[6-(2-hydroxyphenyl)pyridazin-4-yl]-4-phenylpiperidine-4-carbonyl}-5-azaspiro[2.4]heptane-1-carbonyl)piperazin-1-yl]phenyl}piperidine-2,6-dione], in test [1], the Dmax turned out to be 5.79% and the “Fold Selectivity SMARCA4/2” value stood at 1. Besides, the Dmax in test [2] was 0.46%.

`O=C1CCC(c2ccc(N3CCC(CN4CC5(C4)CN(C(=O)C4(c6ccc(Cl)c(Cl)c6)CCN(c6cnnc(-c7ccccc7O)c6)CC4)C5)CC3)cc2)C(=O)N1` (racemic) [Example 32, rac-(3R)-3-{4-[4-({6-[4-(3,4-dichlorophenyl)-1-[6-(2-hydroxyphenyl)pyridazin-4-yl]piperidine-4-carbonyl]-2,6-diazaspiro[3.3]heptan-2-yl}methyl)piperidin-1-yl]phenyl}piperidine-2,6-dione]: in test [1], the DC50 is 71.7 nM, the Dmax came out at 63% and the “Fold Selectivity SMARCA4/2” value is listed as 139.55. In addition, the Dmax in test [2] came out at 37.2%.

Turning to `Cc1ccccc1C1(C(=O)N2CC3(CN(CC4CCN(c5ccc(C6CCC(=O)NC6=O)cc5)CC4)C3)C2)CCN(c2cnnc(-c3ccccc3O)c2)CC1` (racemic) [Example 33, rac-(3R)-3-(4-{4-[(6-{1-[6-(2-hydroxyphenyl)pyridazin-4-yl]-4-(2-methylphenyl)piperidine-4-carbonyl}-2,6-diazaspiro[3.3]heptan-2-yl)methyl]piperidin-1-yl}phenyl)piperidine-2,6-dione], in test [1], the DC50 amounted to 11.7 nM, the Dmax came out at 78.9% and the “Fold Selectivity SMARCA4/2” value stood at 6.16. In test [2], this compound yielded a DC50 of 71.9 nM and a Dmax of 56%.

On to `O=C1CCC(c2ccc(N3CCC(CN4CC5(C4)CN(C(=O)C4(c6cccnc6)CCN(c6cnnc(-c7ccccc7O)c6)CC4)C5)CC3)cc2)C(=O)N1` (racemic) [Example 34, rac-(3R)-3-(4-{4-[(6-{1-[6-(2-hydroxyphenyl)pyridazin-4-yl]-4-(pyridin-3-yl)piperidine-4-carbonyl}-2,6-diazaspiro[3.3]heptan-2-yl)methyl]piperidin-1-yl}phenyl)piperidine-2,6-dione], for which, in test [1], it took 47 nM to reach half-maximal degradation (DC50), the Dmax turned out to be 58.6% and the “Fold Selectivity SMARCA4/2” value amounted to 212.72. Moreover, in test [2], the maximal degradation (Dmax) is 30.6%.

Regarding `Cc1cccc(C2(C(=O)N3CC4(CN(CC5CCN(c6ccc(C7CCC(=O)NC7=O)cc6)CC5)C4)C3)CCN(c3cnnc(-c4ccccc4O)c3)CC2)c1` (racemic) [Example 43, rac-(3R)-3-(4-{4-[(6-{1-[6-(2-hydroxyphenyl)pyridazin-4-yl]-4-(3-methylphenyl)piperidine-4-carbonyl}-2,6-diazaspiro[3.3]heptan-2-yl)methyl]piperidin-1-yl}phenyl)piperidine-2,6-dione], in test [1], the 50% degradation concentration (DC50) amounted to 11.9 nM, the Dmax was found to be 78.5% and the “Fold Selectivity SMARCA4/2” value is 6.99. In test [2], this compound showed a DC50 of 83.4 nM and a Dmax of 59.3%.
